Laboratory results from patent publication US11033538B2, “Dosing regimens for the treatment of lysosomal storage diseases using pharmacological chaperones” (Amicus Therapeutics, Inc., priority 2007, dated 2021).
Numbering of substitutions follows the chain as printed. Read-outs that look alike come from different tables or passages of the source.

Tests used:
[1] = Clinical safety and tolerability of 1-Deoxynorjirimycin, single and repeat doses; format: in vivo, human
rats [2] = conditions: rat, in vivo
monkeys [3] = conditions: monkey, in vivo
in vivo = conditions: plasma
[4] = Pharmacokinetics of 1-Deoxynorjirimycin; conditions: is believed
[5] = Phase 1 multiple-dose study of IFG in healthy subjects, plasma pharmacokinetics; format: in vivo, human; conditions: for Cmax / half-life / Tmax: human, plasma
Method: (§1) Blood samples were collected for pharmacokinetic analysis before the initial drug administration on Day 1, before the 5th, 6th and 7th doses (on Days 5, 6 and 7) (for Cmin determination), and at the following times after the 1st (Day 1) and 7th (Day 7) doses: 0.5, 1, 1.5, 2, 3, 4, 5, 6, 8, 10, 12, 15, 18, and 24 hours. […] In addition, blood samples were collected for pharmacodynamic measurements, i.e., analysis of WBC GCase levels, before dosing on Day 1, Day 3, Day 5, and Day 7, and at return visits on Day 9, Day 14 and Day 21.

GCase [6] = target: T1, GCase (Homo sapiens, UniProt P04062); experiment: WBC GCase levels in healthy subjects receiving IFG (Phase 1 multiple-dose study); format: in vivo
T1 construct: endogenous in cells; host or cells: white blood cells of healthy subjects; healthy human skin fibroblasts
T1 sequence (P04062 40-536): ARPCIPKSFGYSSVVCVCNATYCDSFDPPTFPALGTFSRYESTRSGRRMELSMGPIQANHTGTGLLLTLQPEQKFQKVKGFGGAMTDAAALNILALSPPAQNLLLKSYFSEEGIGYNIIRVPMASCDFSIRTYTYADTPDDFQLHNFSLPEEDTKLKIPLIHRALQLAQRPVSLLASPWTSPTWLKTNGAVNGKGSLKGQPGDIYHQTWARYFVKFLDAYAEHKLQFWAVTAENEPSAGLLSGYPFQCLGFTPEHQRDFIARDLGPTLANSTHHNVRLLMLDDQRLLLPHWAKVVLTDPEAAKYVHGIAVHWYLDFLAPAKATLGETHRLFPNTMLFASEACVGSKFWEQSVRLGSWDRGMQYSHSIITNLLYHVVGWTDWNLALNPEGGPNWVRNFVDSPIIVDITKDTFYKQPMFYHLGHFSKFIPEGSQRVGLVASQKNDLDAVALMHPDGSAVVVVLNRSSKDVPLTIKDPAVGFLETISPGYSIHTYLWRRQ
Method: as §1

GCase [7] = experiment: GCase activity in Gaucher patient-derived fibroblasts, lymphoblasts and macrophages after IFG for 5 days; format: cell-based, human; conditions: lymphoblast and macrophages
Source text: FIGS. 4A, 4B, and 4C. […] FIG. 4A depicts GCase activity in fibroblasts; FIG. 4B depicts GCase activity in lymphoblasts; and FIG. 4C depicts GCase activity in macrophages.

rats [8] = experiment: Nonclinical toxicology studies of IFG, rats; format: in vivo
Source text: (§2) In the lysosome, when the pharmacological chaperone dissociates from the enzyme, the enzyme can perform its normal function, which is to catalyze the breakdown of glucosylceramide (GlcCer), the GCase substrate.

monkeys [9] = experiment: Nonclinical toxicology studies of IFG, monkeys; format: in vivo
Source text: as §2

N370S GCase = target: T2, N370S GCase (Homo sapiens, UniProt P04062, N409S); experiment: Expected N370S GCase accumulation parameters estimated from wild-type PK/PD
T2 sequence (P04062 40-536 N409S): T1 sequence (P04062 40-536) with N370S
Source text: For example, the most prevalent mutation in Gaucher disease is N370S. […] Accordingly, the rate of N370S turnover and the dose that will yield the maximum rate of GCase accumulation, can be estimated based on the differences in PK and PD parameters as compared with the wild-type enzyme: […]

GCase [10] = experiment: GCase levels and trafficking in vitro with IFG (fibroblasts of GD patients); format: cell-based, human
Source text: as §2

GCase [11] = experiment: IFG in a mouse model of GD; format: in vivo
Source text: as §2

[12] = Example 10, pharmacokinetic/tissue distribution of isofagomine in rats; format: in vivo
Method: A single dose of 600 mg/kg of isofagomine was administered to rats via PO gavage. The concentration of isofagomine (μM) in plasma, liver, spleen and brain tissue was ascertained at regular time intervals at dosing (t=0) through 48 hours after dosing.

With `OC[C@H]1NC[C@H](O)[C@@H](O)[C@@H]1O` [1-Deoxynorjirimycin, (2R,3R,4R,5S)-2-(hydroxymethyl) piperidine-3,4,5-triol] the “repeat doses (safe and well tolerated)” value ([1]; for 2 weeks) was “up to 2 grams per day”, the “severity of adverse events” value ([1]; patients receiving drug) was “mild or moderate in severity” and the “single doses appearing safe and well tolerated” value ([1]; single doses) was “up to 600 mg”. The “tolerability in short-term safety studies” value (rats [2]) was “well tolerated”, the “tolerability in short-term safety studies” value (monkeys [3]) was “well tolerated” and the half-life (in vivo) was 4 to 8 h. The oral bioavailability [4] was “high oral bioavailability”.

For `OC[C@H]1CNC[C@@H](O)[C@@H]1O` [IFG, (2R,3R,4R)-5-(hydroxymethyl)-piperidine-3,4-diol], the pharmacokinetic behavior ([5]; after 7 days of oral administration, 25, 75 or 225 mg daily) was “linear with dose”, the Cmax ([5]; oral, 25 mg) was 0.31 µM and the Cmax ([5]; oral, 150 mg) was 1.7 µM. For the same molecule, the half-life ([5]; oral, healthy subjects, multiple-dose study, SEM: 2 hr., read-out: plasma elimination half-life (converted)) was about 14 h, the half-life ([5]; oral, read-out: Half-life (converted)) was 14 h and the Tmax ([5]; oral, read-out: Tmax) was 3 h. For the same molecule, the Tmax ([5]; healthy subjects, multiple-dose study, 7 days oral, SEM: 0.6 hr., read-out: Mean plasma levels (Tmax) peaked) was about 3.4 h, the “Daily dose that yields max rate of accumulation during Initial Enzyme Build-Up phase” value (GCase [6]; Wild-type) was at most 75 mg and the “Max. rate of enzyme loss” value (GCase [6]; Wild-type) was about −3.5 Units/day. The “Max. rate of enzyme accumulation” value (GCase [6]; Wild-type, 1 unit = 1 nmole of 4-MU liberated per mg of total protein per hour) was about 7 Units/day, the “lowest daily dose that achieved the maximum rate of GCase accumulation over 7 days” value (GCase [6]; healthy subjects) was “about 75 mg” and the “maximum increase in GCase enzyme level in white blood cells” value (GCase [6]; healthy subjects, 7-day treatment) was “approximately 3.5 fold above baseline”. For the same molecule, the “IFG concentration range at which maximum chaperoning (Emax) occurs” value (GCase [7]) was 10 to 100 µM, the “safety and tolerability of repeated dosing” value (rats [8]) was “generally safe and well tolerated” and the “safety and tolerability of repeated dosing” value (monkeys [9]) was “generally safe and well tolerated”. The “Daily dose that yields max rate of accumulation during Initial Enzyme Build-Up phase” value (N370S GCase) was at most 150 to 300 mg, the “Max. rate of enzyme accumulation” value (N370S GCase) was about 0.35 Units/day and the “Max. rate of enzyme loss” value (N370S GCase) was about −0.17 Units/day. For the same molecule, the “GCase trafficking to the lysosome” value (GCase [10]; fibroblasts of GD patients) was “increases GCase trafficking to the lysosome in fibroblasts of GD patients”, the “GCase total cellular enzyme levels” value (GCase [10]; in vitro) was “increases GCase total cellular enzyme levels in vitro” and the “plasma levels of chitinase and IgG” value (GCase [11]) was “reduces plasma levels of chitinase and immunoglobulin G (IgG)”. For the same molecule, the “tissue GCase activity” value (GCase [11]) was “increases tissue GCase activity”, the “time after which levels fall below the GCASE Ki value” ([12]; liver and plasma, single 600 mg/kg PO) was 48 h and the “time for all tissues to attain levels exceeding the GCase enhancement EC50” value ([12]; single 600 mg/kg PO gavage, plasma, liver, spleen, brain) was at most 15 min. The clearance from tissue ([12]; spleen and brain tissue) was “slower clearance”.
